Molecules are shown by their SMILES.

The first data set in a line: in vitro. The following applies: human, hela cells, % viability.
One may read the viability as a read-out of living cells in per cent, often relative to untreated cells. Turning to `COc1cc(/C=N/NC(=O)c2cccnc2)cc([N+](=O)[O-])c1O` [CBK262233], the viability at 28.5 h, 10 µM stood at 86.4%.
Same read-out and setting: the value for `CCC(Oc1ccccc1)C(=O)Nc1cc(OC)c(Cl)cc1OC` (stereo not drawn) [CBK262235] was 112%; that for `COc1ccc(N(CC(=O)Nc2cccnc2)S(=O)(=O)c2ccccc2)cc1` [CBK262236] was 91.6%; that for `COc1ccc(/C=C/C(C)=C\C(=O)O)c(OC)c1` [CBK262237N] was 94.8%.
Same read-out and setting: the same measure for `Nc1nc2ccccc2n1/N=C/c1ccc([N+](=O)[O-])cc1` [CBK262239]: 88%; for `O=C(COc1ccccc1O)NCCN1CCOCC1` [CBK262243C]: 84%; for `O=C1C2(c3ccccc3)CN3CN(C2)CC1(c1ccccc1)C3` [CBK262245]: 93.5%.
The same measure, in the same setting: the value for `CN1CCN(S(=O)(=O)c2ccc(Oc3ccc([N+](=O)[O-])cc3)cc2)CC1` [CBK262248] was 105%.
On to `COc1cc(/C=N/Nc2nnn[nH]2)cc2c1OCO2` [CBK262253], for which the viability at 28.5 h, 10 µM was determined as 100%.
On to `Cn1c2ccccc2c2cc(C(O)(CC(=O)CC(O)(c3ccc4c(c3)c3ccccc3n4C)C(F)(F)F)C(F)(F)F)ccc21` (stereo not drawn) [CBK262254], for which the viability at 28.5 h, 10 µM was 88%.
For the compound `Cc1ccc(S(=O)(=O)N2CCOCC2)cc1C(=O)O` [CBK262256], the viability at 28.5 h, 10 µM amounted to 115%.
Same read-out and setting: the same measure for `CCCCn1c(=O)c(C(=O)Nc2ccccc2S(N)(=O)=O)c(O)c2ccccc21` [CBK262260]: 98.6%; for `COc1ccccc1CNCc1ccccn1` [CBK262261]: 89.4%; for `O=C(O)/C=C/c1cccc(NS(=O)(=O)c2ccc(C(=O)O)cc2)c1` [CBK262262]: 88%.
For the compound `C/C(=N/OCC(=O)N/N=C/c1sc2ccccc2c1O)c1ccccc1` [CBK262266], the viability at 28.5 h, 10 µM came out at 96.3%.
Still for that read-out and setting: the value for `Cn1c(=O)c(C(=O)Nc2ccccc2S(N)(=O)=O)c(O)c2ccccc21` [CBK262267] was 85.5%; that for `COc1cccc(/C=N/NC(=O)C(=O)NCc2ccccn2)c1` [CBK262268] was 84.5%; that for `Cc1cc2nc(NC(=N)N)nc(C)c2cc1C` [CBK262269] was 83.8%.
Turning to `CCOC(=O)c1ccccc1NS(C)(=O)=O` [CBK262271], the viability at 28.5 h, 10 µM amounted to 101%.
Regarding `Cc1ccccc1C(=O)NC(NCC1CCCO1)C(Cl)(Cl)Cl` (stereo not drawn) [CBK262273], the viability at 28.5 h, 10 µM worked out at 91.9%.
Same read-out and setting: the same measure for `COc1ccc(C(=O)/C=C/c2ccc(N3N=C(c4ccccc4)CC3c3ccccc3)cc2)cc1` (stereo not drawn) [CBK262274]: 91.7%; for `O=C(Nc1nnn[nH]1)C12CC3CC(CC(C3)C1)C2` [CBK262276]: 82.4%; for `COc1cc(/C=N/NC(=O)c2ccncc2)ccc1OC(=O)c1cccs1` [CBK262278]: 103%.
Same read-out and setting: the same measure for `COc1ccc(C(=O)NC(NCc2ccco2)C(Cl)(Cl)Cl)cc1` (stereo not drawn) [CBK262279]: 119%.
Take `CC(C)=NNC(=O)CN(c1ccc(C)cc1)S(=O)(=O)c1ccccc1` [CBK262280]: the viability at 28.5 h, 10 µM came out at 99.4%.
The same measure, in the same setting: the value for `O=C1CC(N2CCN(c3ccccn3)CC2)C(=O)N1CCc1ccccc1` (stereo not drawn) [CBK262282] was 77.9%.
On the same count and under the same terms, the value for `Brc1ccc(/C=N\c2ccc3c(c2)ncn3CCn2cnc3cc(/N=C/c4ccc(Br)cc4)ccc32)cc1` [CBK262285] was 83.9%; that for `COc1ccccc1/C=N/NC(=O)C(=O)NCc1ccccn1` [CBK262286] was 93.7%.
Same read-out and setting: the value for `O=C(N/N=C/c1ccc(-c2ccc([N+](=O)[O-])cc2)o1)c1cccnc1` [CBK262287] was 92.3%; that for `CC(C)CCn1c(=O)c(C(=O)Nc2ccccc2S(N)(=O)=O)c(O)c2ccccc21` [CBK262294] was 104%; that for `Cc1ccc(Nc2nc(N/N=C/c3ccccc3)nc(N3CCC(Cc4ccccc4)CC3)n2)cc1` [CBK262296] was 76.7%.
Turning to `O=C(Nc1c(Cl)cccc1Cl)c1ccc(-c2ccccc2)cc1` [CBK262300], the viability at 28.5 h, 10 µM came to 94.5%.
The same measure, in the same setting: the value for `NC(=O)CCn1c(=S)n(CCC(N)=O)c2ccccc21` [CBK262301] was 86.2%; that for `O=P(O)(CCc1ccccc1)CN1CCOCC1` [CBK262305] was 104%.
Still for that read-out and setting: the same measure for `Cc1ccc(-c2cc(-c3ccccc3O)nc(N/N=C/c3cccnc3)n2)cc1` [CBK262308]: 85.2%; for `CCOC(=O)c1c(NC(=O)Cc2ccccc2)sc2c1CCC2` [CBK262309]: 88.4%.
On the same count and under the same terms, the same measure for `Cc1ccccc1-n1c(Cc2ccccc2)nc2c(cnn2-c2ccccc2)c1=O` [CBK262310]: 91.6%; for `O=C1CCCCCN1CP(=O)(O)CCc1ccccc1` [CBK262313]: 99.7%.
For the compound `O=C(O)Cc1nn(Cc2ccccc2)c(=O)c2ccccc12` [CBK262315], the viability at 28.5 h, 10 µM is 115%.
Still for that read-out and setting: the same measure for `O=P(O)(CCc1ccncc1)CN1CCOCC1` [CBK262317]: 89.3%.
`O=C(Nc1ccccc1)Nc1ccc2c(c1)S(=O)(=O)c1cc(NC(=O)Nc3ccccc3)ccc1-2` [CBK262320]: the viability at 28.5 h, 10 µM was 94.6%.
Same read-out and setting: the same measure for `N#Cc1c(N)nc2c(c1-c1ccc(Cl)cc1)CCCCCCCCCC2` [CBK262322]: 90.6%.
The same measure, in the same setting: the same measure for `O=P(O)(CN1CCCCC1)C1CCCCC1O` (stereo not drawn) [CBK262325]: 87.1%; for `O=C(CN1C(=O)CCC1=O)NCCc1ccccc1` [CBK262326]: 98.3%.
Still for that read-out and setting: the value for `O=C1c2ccccc2S(=O)(=O)N1CC(O)Cn1c2ccc(Cl)cc2c2cc(Cl)ccc21` (stereo not drawn) [CBK262327] was 101%; that for `Cc1cccc(C)c1N(CC(=O)O)S(C)(=O)=O` [CBK262329] was 102%; that for `COc1cc(/C=N/NC(=O)CCn2c3ccccc3c3ccccc32)ccc1O` [CBK262332] was 73%.
Turning to `Cc1ccc(C(=O)NCCCNc2ccc(Cl)cc2[N+](=O)[O-])cc1` [CBK262334], the viability at 28.5 h, 10 µM amounted to 101%.
Same read-out and setting: the same measure for `O=[N+]([O-])c1ccccc1N/C(=N/S(=O)(=O)c1ccccc1)c1ccccc1` [CBK262336]: 85.8%; for `O=C(Nc1cccc(CCc2ccccn2)c1)Nc1cccc2ccccc12` [CBK262337]: 87.7%; for `CC(CCCC(C)(C)O)NCCO` (stereo not drawn) [CBK262340]: 96.3%.
Still for that read-out and setting: the same measure for `CN1CCC(=NNC(=O)C(=O)NCc2ccco2)CC1` [CBK262341]: 84.6%.
Still for that read-out and setting: the value for `O=C(Cn1c[n+]([N-][N+](=O)[O-])cn1)Nc1ncc(Br)cc1Br` [CBK262342] was 90.9%; that for `Cc1ccc(NC(=O)CN(c2ccccc2)S(=O)(=O)c2ccccc2[N+](=O)[O-])cc1C` [CBK262345] was 57.7%.
Turning to `CC(C)N/C(=N/S(=O)(=O)c1ccccc1)c1ccccc1` [CBK262346], the viability at 28.5 h, 10 µM came out at 98.2%.
On the same count and under the same terms, the same measure for `O=C1c2ccccc2S(=O)(=O)N1CC(O)Cn1c2ccc(Br)cc2c2cc(Br)ccc21` (stereo not drawn) [CBK262347]: 112%; for `O=C(CCn1c(-c2ccccc2)c(-c2ccccc2)c2ccccc21)N/N=C/c1cccc(O)c1` [CBK262348]: 52.1%; for `COc1ccc(-c2nc3c(n2O)CCc2c-3no[n+]2[O-])cc1OC` [CBK262350]: 80.3%.
The same measure, in the same setting: the value for `CN1C(=O)CC(NCc2ccc(S(N)(=O)=O)cc2)C1=O` (stereo not drawn) [CBK262352] was 87.4%; that for `O=C(CCn1c(-c2ccccc2)c(-c2ccccc2)c2ccccc21)N/N=C/c1ccccc1O` [CBK262353] was 66.9%.
The same measure, in the same setting: the value for `COc1ccc(CCN2C(=O)CC(N3CCN(c4ccccc4)CC3)C2=O)cc1OC` (stereo not drawn) [CBK262354] was 106%; that for `CCOC(=O)c1ccc(N/C=C(\C#N)c2nc(-c3cc4ccccc4oc3=O)cs2)cc1` [CBK262356] was 83.1%.
In the case of `O=C(O)c1ccc(S(=O)(=O)NCc2ccc3c(c2)OCO3)cc1` [CBK262360], the viability at 28.5 h, 10 µM is 97%.
The same measure, in the same setting: the same measure for `O=C(O)COc1ccc(Br)cc1/C=N/Nc1cccc2cccnc12` [CBK262362]: 112%; for `Cc1ccc2[nH]c3nc(N/N=C/c4ccc(-c5cccc([N+](=O)[O-])c5)o4)nnc3c2c1` [CBK262365]: 106%.
On the same count and under the same terms, the same measure for `N#C/C(=C\Nc1ccc(S(N)(=O)=O)cc1)c1nc(-c2cccc([N+](=O)[O-])c2)cs1` [CBK262366]: 115%; for `O=C(O)COc1ccc(Br)cc1/C=N/Nc1ccccn1` [CBK262369]: 102%.
For the compound `O=C(O)c1cc(S(=O)(=O)Nc2ccccc2C(=O)O)ccc1Br` [CBK262371], the viability at 28.5 h, 10 µM stood at 98.8%.
Regarding `COc1cc(/C=N\Nc2nnc3c(n2)[nH]c2c(C)cccc23)cc(Br)c1O` [CBK262375], the viability at 28.5 h, 10 µM is 106%.
In the case of `N#C/C(=C\Nc1ccc(S(N)(=O)=O)cc1)c1nc(-c2cc3c(ccc4ccccc43)oc2=O)cs1` [CBK262376], the viability at 28.5 h, 10 µM came out at 105%.
Still for that read-out and setting: the same measure for `COc1cc(/C=N/NC(=O)c2nonc2N)ccc1OC(=O)c1cc(F)c(F)cc1Cl` [CBK262380]: 90.1%.
Same read-out and setting: the value for `Cc1cccc(C2(c3cccc(C)c3)CC2C(=O)NCc2cccnc2)c1` (stereo not drawn) [CBK262382] was 106%; that for `O=C(O)CCn1c(SCCc2ccccc2)nc2ccccc21` [CBK262384] was 107%.
The same measure, in the same setting: the same measure for `NC(C(=O)O)C(O)c1ccccc1[N+](=O)[O-]` (stereo not drawn) [CBK262389]: 92.7%; for `COc1cc(C(C)=O)ccc1OC(=O)CN1C(=O)c2ccccc2C1=O` [CBK262392]: 112%; for `COc1cccc(C(C(F)(F)F)P(C)(=O)O)c1` (stereo not drawn) [CBK262393]: 96.8%.
As to `O=C(CC1CS(=O)(=O)CC1CC(=O)Nc1cccc(Cl)c1Cl)Nc1cccc(Cl)c1Cl` (stereo not drawn) [CBK262404], the viability at 28.5 h, 10 µM was determined as 95.3%.

The data set is the same for the next values; noted with them: human, hela cells, % viability, bulk resorufin, single well.
Turning to `CCN(CC)CCCNC=C1C(=O)NC(=O)NC1=O` [CBK262403], the viability at 28.5 h, 10 µM stood at 94%.

The values above are taken from article PMC12040169 (PLOS Biology, 2025).
